Test results published in US20200078468A1, “NEUROTENSIN RECEPTOR BINDING CONJUGATES AND FORMULATIONS THEREOF” (priority 2016, published 2020).
Like-named read-outs stand apart in the source and are kept apart here. Numbered stars: 1 amine (or outer) side, 2 acyl side, 3 side chain; on linkers, the order of the positions; unused ones are H or OH. Bridge positions count the residues as written; N and C are the ends. Square brackets hold non-standard residues; d marks the D form. Peptide text beside a SMILES is read from it. I, II: the chains in the order shown. * marks the point of attachment. Hexanoyl(6-succinimido-3yl) = O=C1CC([*:1])C(=O)N1CCCCCC(=O)[*:2]; Dolaproine = CO[C@@H]([C@@H]1CCCN1)[C@@H](C)C(=O)O; Dil = CC[C@H](C)[C@H](NC)[C@@H](CC(=O)O)OC; PABC = O=C(OCc1ccc(N[*:1])cc1)[*:2]; X1 = C[C@@H](N*)[C@@H](O)c1ccccc1; Cit = NC(=O)NCCC[C@H](N)C(=O)O; Pen = CC(C)(S)[C@H](N)C(=O)O; Tle = CC(C)(C)[C@H](N)C(=O)O; NMeV = CN[C@H](C(=O)O)C(C)C

Experiments:
[1] = biological target: T1, human NTSR1 (Homo sapiens, UniProt P30989); experiment: radioligand-receptor binding assay, [125I] labeled neurotensin (Eurofins Panlabs); conditions: [125I] neurotensin 0.02 nM, membranes from NTSR1 expressing HEK-293 cells, 45 minute incubation, Cheng and Prusoff; read-out: NTSR1 binding Ki
T1 construct: host or cells: HEK-293 cells (membrane preparations)
T1 sequence (P30989 whole entry): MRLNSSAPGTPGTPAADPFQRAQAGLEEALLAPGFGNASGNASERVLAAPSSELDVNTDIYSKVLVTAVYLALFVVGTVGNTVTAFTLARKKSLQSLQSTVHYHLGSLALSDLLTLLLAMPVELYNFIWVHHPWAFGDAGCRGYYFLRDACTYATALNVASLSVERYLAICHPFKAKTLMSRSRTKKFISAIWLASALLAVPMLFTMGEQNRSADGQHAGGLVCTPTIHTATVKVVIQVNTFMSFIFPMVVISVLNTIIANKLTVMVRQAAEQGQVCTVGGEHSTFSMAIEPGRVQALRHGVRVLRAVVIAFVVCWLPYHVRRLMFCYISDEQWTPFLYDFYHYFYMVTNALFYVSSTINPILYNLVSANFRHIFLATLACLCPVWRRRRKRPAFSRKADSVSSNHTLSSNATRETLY
Summary of the method: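 Membranes from HEK-293 cells expressing human NTSR1 incubated 45 min with 0.02 nM [125I]neurotensin and conjugate in 6-point 3-fold dilutions from 100 or 10 nM; bound radioactivity counted after filtration. IC50 by nonlinear regression, converted to Ki via Cheng–Prusoff using historical ligand Kd.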

[2] = tested on: SW48 (human colon cancer cells); experiment: inhibition of SW48 cell proliferation (CellTiter Glo); type: cell-based; conditions: 72 hrs, read-out: SW-48 proliferation IC50
Summary of the method: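 Cells plated at 5,000/well and grown 24 hrs were exposed to conjugates for 72 hrs at 37° C, 5% CO2, in a ten-point three-fold series starting at 10 μM; vehicle was 0.01% DMSO. Proliferation was read by CellTiter Glo. % inhibition was taken relative to vehicle, with IC50 from four-parameter nonlinear regression.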

[3] = tested on: HT-29 cells (human colon cancer cells); experiment: inhibition of HT29 cell proliferation (Cell Titer Glo 2.0); type: cell-based; conditions: 72 h
Protocol: Conjugates were assessed in an in vitro assay evaluating inhibition of cell proliferation. HT-29 cells (human colon cancer cells) were seeded in white walled 96-well plates at 10,000 cells per well in 100 μl McCoy's 5a (Invitrogen) media supplemented with 10% Fetal Bovine Serum (Invitrogen). After allowing cells to settle overnight, 5 μl of 20× test article was added to each well in replicate and incubated for 72 h. 72 hours after addition of compound, plates were removed from incubator and allowed to cool to room temperature. 50 μl of Cell Titer Glo 2.0 (Promega) was added to each well, incubated for 15 minutes, and plates were read on Glomax luminometer (Promega) using the Cell Titer Glo protocol. Raw luminometer readings for each plate were transformed by dividing the experimental well into the mean of untreated control wells. This is reported as ratio of untreated, and is plotted with Prism 6 software (Graph Pad) and fitted with a 4-parameter, variable slope curve.
Conjugates are assessed for receptor-dependent cytotoxicity by the difference between an NTSR1-targeting conjugate, and the corresponding conjugate with the same linker moiety and active agent where the NTSR1-targeting domain has been scrambled.

| SMILES | Ki [1] [nM] | IC50 ([2]; NTSR1 targeted compound) [nM] | IC50 ([3]; NTSR1 targeted compound) [nM] | IC50 ([2]; NTSR1 scrambled compound) [nM] | IC50 ([3]; NTSR1 scrambled compound) [nM] |
| --- | --- | --- | --- | --- | --- |
| CC[C@H](C)[C@@H]([C@@H](CC(=O)N1CCC[C@H]1[C@H](OC)[C@@H](C)C(=O)N[C@H](C)[C@@H](O)c1ccccc1)OC)N(C)C(=O)[C@@H](NC(=O)[C@H](C(C)C)N(C)C(=O)OCc1ccc(NC(=O)[C@H](CCCNC(N)=O)NC(=O)[C@@H](NC(=O)CCCCCN2C(=O)CC(SC(C)(C)[C@H](NC(C)=O)C(=O)N3CCC[C@H]3C(=O)N[C@@H](CCCNC(=N)N)C(=O)N[C@@H](CCCNC(=N)N)C(=O)N3CCC[C@H]3C(=O)N[C@@H](Cc3ccc(O)cc3)C(=O)N[C@H](C(=O)N[C@@H](CC(C)C)C(=O)O)C(C)(C)C)C2=O)C(C)C)cc1)C(C)C (stereo partly drawn) [Compound 53] (I: Ac-[Pen]PRRPY[Tle]L-OH / II: V[Cit][PABC][NMeV]V[Dil][Dolaproine]-X1; linker I:1-II:N via Hexanoyl(6-succinimido-3yl)) | 3.15 | 17 | 16 |  |  |
| CC[C@H](C)[C@@H]([C@@H](CC(=O)N1CCC[C@H]1[C@H](OC)[C@@H](C)C(=O)N[C@H](C)[C@@H](O)c1ccccc1)OC)N(C)C(=O)[C@@H](NC(=O)[C@H](C(C)C)N(C)C(=O)OCCSSC(C)(C)[C@H](NC(C)=O)C(=O)N1CCC[C@H]1C(=O)N[C@@H](CC(C)C)C(=O)N1CCC[C@H]1C(=O)N[C@@H](CCCNC(=N)N)C(=O)N[C@H](C(=O)N[C@@H](CCCNC(=N)N)C(=O)N[C@@H](Cc1ccc(O)cc1)C(=O)O)C(C)(C)C)C(C)C [Compound 92] |  |  |  | 18 | 2.2 |
| CC[C@H](C)[C@@H]([C@@H](CC(=O)N1CCC[C@H]1[C@H](OC)[C@@H](C)C(=O)N[C@H](C)[C@@H](O)c1ccccc1)OC)N(C)C(=O)[C@@H](NC(=O)[C@H](C(C)C)N(C)C(=O)OCc1ccc(NC(=O)[C@H](CCCNC(N)=O)NC(=O)[C@@H](NC(=O)CCCCCN2C(=O)CC(SC(C)(C)[C@H](NC(C)=O)C(=O)N3CCC[C@H]3C(=O)N[C@@H](CC(C)C)C(=O)N3CCC[C@H]3C(=O)N[C@@H](CCCNC(=N)N)C(=O)N[C@H](C(=O)N[C@@H](CCCNC(=N)N)C(=O)N[C@@H](Cc3ccc(O)cc3)C(=O)O)C(C)(C)C)C2=O)C(C)C)cc1)C(C)C (some centres unmarked) [Compound 90] |  |  |  | 60 | 97 |
| COc1cc2cc(c1Cl)N(C)C(=O)C[C@H](OC(=O)[C@H](C)N(C)C(=O)CCSC1CC(=O)N(CCCCCC(=O)NCCCC[C@H](NC(C)=O)C(=O)N3CCC[C@H]3C(=O)N[C@@H](CC(C)C)C(=O)N3CCC[C@H]3C(=O)N(C)[C@@H](CCCNC(=N)N)C(=O)N[C@H](C(=O)N[C@@H](CCCNC(=N)N)C(=O)N[C@@H](Cc3ccc(O)cc3)C(=O)O)C(C)(C)C)C1=O)[C@]1(C)O[C@H]1[C@H](C)[C@@H]1C[C@@](O)(NC(=O)O1)[C@H](OC)/C=C/C=C(\C)C2 (some centres unmarked) [Compound 80] |  |  |  | 81 | 116 |
| COc1cc2cc(c1Cl)N(C)C(=O)C[C@H](OC(=O)[C@H](C)N(C)C(=O)CCSSCCC(=O)NCCCC[C@H](NC(C)=O)C(=O)N1CCC[C@H]1C(=O)N[C@@H](CC(C)C)C(=O)N1CCC[C@H]1C(=O)N(C)[C@@H](CCCNC(=N)N)C(=O)N[C@H](C(=O)N[C@@H](CCCNC(=N)N)C(=O)N[C@@H](Cc1ccc(O)cc1)C(=O)O)C(C)(C)C)[C@]1(C)O[C@H]1[C@H](C)[C@@H]1C[C@@](O)(NC(=O)O1)[C@H](OC)/C=C/C=C(\C)C2 [Compound 78] |  |  |  | 3 | 13.3 |
| CC[C@H](C)[C@@H]([C@@H](CC(=O)N1CCC[C@H]1[C@H](OC)[C@@H](C)C(=O)N[C@H](C)[C@@H](O)c1ccccc1)OC)N(C)C(=O)[C@@H](NC(=O)[C@H](C(C)C)N(C)C(=O)OCc1ccc(NC(=O)[C@H](CCCNC(N)=O)NC(=O)[C@@H](NC(=O)CCCCCN2C(=O)CC(SC(C)(C)[C@H](NC(C)=O)C(=O)N3CCC[C@H]3C(=O)N[C@@H](CCCCN)C(=O)N[C@@H](CCCNC(=N)N)C(=O)N3CCC[C@H]3C(=O)N[C@@H](Cc3ccc(O)cc3)C(=O)N[C@H](C(=O)N[C@@H](CC(C)C)C(=O)O)C(C)(C)C)C2=O)C(C)C)cc1)C(C)C (stereo partly drawn) [Compound 59] (I: Ac-[Pen]PKRPY[Tle]L-OH / II: V[Cit][PABC][NMeV]V[Dil][Dolaproine]-X1; linker I:1-II:N via Hexanoyl(6-succinimido-3yl)) | 6.98 | 65 |  |  |  |
| COc1cc2cc(c1Cl)N(C)C(=O)C[C@H](OC(=O)[C@H](C)N(C)C(=O)CCSC1CC(=O)N(CCCNC(=O)CNC(=O)[C@H](CC(C)C)NC(=O)[C@H](Cc3ccccc3)NC(=O)CNC(=O)CCCCCN3C(=O)CC(SCCC(=O)NCCCC[C@H](NC(C)=O)C(=O)N4CCC[C@H]4C(=O)N[C@H](CCCN)C(=O)N[C@@H](CCN)C(=O)N4CCC[C@H]4C(=O)N[C@@H](Cc4ccc(O)cc4)C(=O)N[C@H](C(=O)N[C@@H](CC(C)C)C(=O)O)C(C)(C)C)C3=O)C1=O)[C@]1(C)O[C@H]1[C@H](C)[C@@H]1C[C@@](O)(NC(=O)O1)[C@H](OC)/C=C/C=C(\C)C2 (some centres unmarked) [Compound 34] | 6.07 | 70.2 |  |  |  |
| COc1cc2cc(c1Cl)N(C)C(=O)C[C@H](OC(=O)[C@H](C)N(C)C(=O)CCSC1CC(=O)N(CCCNC(=O)CNC(=O)[C@H](CC(C)C)NC(=O)[C@H](Cc3ccccc3)NC(=O)CNC(=O)CCCCCN3C(=O)CC(SCCC(=O)NCCCC[C@H](NC(C)=O)C(=O)N4CCC[C@H]4C(=O)N[C@@H](CCCN)C(=O)N[C@@H](CCCNC(=N)N)C(=O)N4CCC[C@H]4C(=O)N[C@@H](Cc4ccc(O)cc4)C(=O)N[C@H](C(=O)N[C@@H](CC(C)C)C(=O)O)C(C)(C)C)C3=O)C1=O)[C@]1(C)O[C@H]1[C@H](C)[C@@H]1C[C@@](O)(NC(=O)O1)[C@H](OC)/C=C/C=C(\C)C2 (some centres unmarked) [Compound 37] | 2.35 | 51.6 |  |  |  |
| CCc1c2c(nc3ccc(O)cc13)-c1cc3c(c(=O)n1C2)COC(=O)[C@@]3(CC)OC(=O)OCc1ccc(NC(=O)[C@H](CCCNC(N)=O)NC(=O)[C@@H](NC(=O)CCCCCN2C(=O)CC(SC(C)(C)[C@H](NC(C)=O)C(=O)N3CCC[C@H]3C(=O)N[C@@H](CCCNC(=N)N)C(=O)N[C@@H](CCCNC(=N)N)C(=O)N3CCC[C@H]3C(=O)N[C@@H](Cc3ccc(O)cc3)C(=O)N[C@H](C(=O)N[C@@H](CC(C)C)C(=O)O)C(C)(C)C)C2=O)C(C)C)cc1 (some centres unmarked) [Compound 64] | 2.05 | 66 |  |  |  |
| COc1cc2cc(c1Cl)N(C)C(=O)C[C@H](OC(=O)[C@H](C)N(C)C(=O)CCSC1CC(=O)N(CCCNC(=O)CNC(=O)[C@H](CC(C)C)NC(=O)[C@H](Cc3ccccc3)NC(=O)CNC(=O)CCCCCN3C(=O)CC(SCCC(=O)NCCCC[C@H](NC(C)=O)C(=O)N4CCC[C@H]4C(=O)N[C@@H](CCCNC(=N)N)C(=O)N[C@@H](CCN)C(=O)N4CCC[C@H]4C(=O)N[C@@H](Cc4ccc(O)cc4)C(=O)N[C@H](C(=O)N[C@@H](CC(C)C)C(=O)O)C(C)(C)C)C3=O)C1=O)[C@]1(C)O[C@H]1[C@H](C)[C@@H]1C[C@@](O)(NC(=O)O1)[C@H](OC)/C=C/C=C(\C)C2 (some centres unmarked) [Compound 31] | 2.39 | 75.6 |  |  |  |
| CO[C@H]1C(=O)[C@]2(C)[C@@H](OC)C[C@H]3OC[C@@]3(OC(C)=O)[C@H]2[C@H](OC(=O)c2ccccc2)[C@]2(O)C[C@H](OC(=O)[C@H](OC(=O)CCCCCN3C(=O)CC(SC(C)(C)[C@H](NC(C)=O)C(=O)N4CCC[C@H]4C(=O)N[C@@H](CCCNC(=N)N)C(=O)N[C@@H](CCCNC(=N)N)C(=O)N4CCC[C@H]4C(=O)N[C@@H](Cc4ccc(O)cc4)C(=O)N[C@H](C(=O)N[C@@H](CC(C)C)C(=O)O)C(C)(C)C)C3=O)[C@@H](NC(=O)OC(C)(C)C)c3ccccc3)C(C)=C1C2(C)C (some centres unmarked) [Compound 4] | 2.06 | 138 |  |  |  |
